What was measured:
Conditions in all cases: 72 h
[1] = tested on: HL-60
Summary of the method: (§1)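 The IC50 was derived from log-logistic dose–response fitting. Each of fifteen myeloid leukaemia cell lines, seeded in RPMI 1640 within its linear growth range, was exposed in 384-well plates to five tenfold doses (1 to 10,000 nM) in duplicate for 72 h at 37 °C and 5% CO2. Luminescent ATP viability readings were normalised to vehicle and to a positive control at 10 µM before four-parameter curve fitting.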

[2] = tested on: MV4-11
Summary of the method: as §1

[3] = tested on: KCL-22
Summary of the method: as §1

[4] = tested on: K-562
Summary of the method: as §1

[5] = tested on: ML-2
Summary of the method: as §1

[6] = tested on: KG-1
Summary of the method: as §1

[7] = tested on: LAMA-84
Summary of the method: as §1

[8] = tested on: THP-1
Summary of the method: as §1

[9] = tested on: NOMO-1
Summary of the method: as §1

[10] = tested on: SHI-1
Summary of the method: as §1

[11] = tested on: MOLM-13
Summary of the method: as §1

[12] = tested on: HEL
Summary of the method: as §1

[13] = tested on: Mono-Mac-6
Summary of the method: as §1

[14] = tested on: KU-812
Summary of the method: as §1

[15] = tested on: BV-173
Summary of the method: as §1

[16] = tested on: HL-60; assay: cell viability (% survival relative to DMSO control, bortezomib = 0%); higher = less cytotoxic
Summary of the method: (§2)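 Seeding density for each of the 10 AML and 5 CML cell lines was titrated to the linear growth range. Cells went into 384-well plates pre-printed in duplicate with compounds at 1, 10, 100, 1000 or 10000 nM and were held for 72 h at 37 °C with 5% CO2. CellTiter-Glo luminescence then provided the readout. Percent survival is expressed relative to vehicle at 100% and a 10 µM positive control at 0%, averaged over duplicates.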

[17] = tested on: MV4-11; assay: as above
Summary of the method: as §2

[18] = tested on: KCL-22; assay: as above
Summary of the method: as §2

[19] = tested on: K-562; assay: as above
Summary of the method: as §2

[20] = tested on: ML-2; assay: as above
Summary of the method: as §2

[21] = tested on: KG-1; assay: as above
Summary of the method: as §2

[22] = tested on: LAMA-84; assay: as above
Summary of the method: as §2

[23] = tested on: THP-1; assay: as above
Summary of the method: as §2

[24] = tested on: NOMO-1; assay: as above
Summary of the method: as §2

[25] = tested on: SHI-1; assay: as above
Summary of the method: as §2

[26] = tested on: MOLM-13; assay: as above
Summary of the method: as §2

[27] = tested on: HEL; assay: as above
Summary of the method: as §2

[28] = tested on: Mono-Mac-6; assay: as above
Summary of the method: as §2

[29] = tested on: KU-812; assay: as above
Summary of the method: as §2

[30] = tested on: BV-173; assay: as above
Summary of the method: as §2

In the case of `O=[As]O[As]=O` (stereo not given) [Arsenic trioxide], the “IC50 (cell viability)” value [1] was 8.69 µM, the “IC50 (cell viability)” value [2] was 4.27 µM and the “IC50 (cell viability)” value [3] was > 10 µM. For the same compound, the “IC50 (cell viability)” value [4] was > 10 µM, the “IC50 (cell viability)” value [5] was > 10 µM and the “IC50 (cell viability)” value [6] was > 10 µM. The “IC50 (cell viability)” value [7] was 7.24 µM, the “IC50 (cell viability)” value [8] was > 10 µM and the “IC50 (cell viability)” value [9] was > 10 µM. The “IC50 (cell viability)” value [10] was 9.09 µM, the “IC50 (cell viability)” value [11] was 4.97 µM and the “IC50 (cell viability)” value [12] was > 10 µM. For the same compound, the “IC50 (cell viability)” value [13] was 8.74 µM, the “IC50 (cell viability)” value [14] was > 10 µM and the “IC50 (cell viability)” value [15] was 4.7 µM. It also gave a cell viability ([16]; 1 nM) of 108%, a cell viability ([16]; 10 nM) of 105% and a cell viability ([16]; 100 nM) of 109%. It also gave a cell viability ([16]; 1000 nM) of 96.9%, a cell viability ([16]; 10000 nM) of 55.6% and a cell viability ([17]; 1 nM) of 97%. For the same compound, the cell viability ([17]; 10 nM) was 108%, the cell viability ([17]; 100 nM) was 104% and the cell viability ([17]; 1000 nM) was 95.1%. It also gave a cell viability ([17]; 10000 nM) of 20.4%, a cell viability ([18]; 1 nM) of 107% and a cell viability ([18]; 10 nM) of 107%. It also gave a cell viability ([18]; 100 nM) of 102%, a cell viability ([18]; 1000 nM) of 99% and a cell viability ([18]; 10000 nM) of 74.4%. The cell viability ([19]; 1 nM) was 91.1%, the cell viability ([19]; 10 nM) was 93.8% and the cell viability ([19]; 100 nM) was 105%. The cell viability ([19]; 1000 nM) was 102%, the cell viability ([19]; 10000 nM) was 49.5% and the cell viability ([20]; 1 nM) was 109%. For the same compound, the cell viability ([20]; 10 nM) was 96.4%, the cell viability ([20]; 100 nM) was 103% and the cell viability ([20]; 1000 nM) was 94.9%. The cell viability ([20]; 10000 nM) was 76.2%, the cell viability ([21]; 1 nM) was 103% and the cell viability ([21]; 10 nM) was 106%. For the same compound, the cell viability ([21]; 100 nM) was 108%, the cell viability ([21]; 1000 nM) was 97% and the cell viability ([21]; 10000 nM) was 86.4%. The cell viability ([22]; 1 nM) was 104%, the cell viability ([22]; 10 nM) was 100% and the cell viability ([22]; 100 nM) was 109%. For the same compound, the cell viability ([22]; 1000 nM) was 90.2%, the cell viability ([22]; 10000 nM) was 53.2% and the cell viability ([23]; 1 nM) was 93.9%. For the same compound, the cell viability ([23]; 10 nM) was 96.1%, the cell viability ([23]; 100 nM) was 106% and the cell viability ([23]; 1000 nM) was 92.4%. The cell viability ([23]; 10000 nM) was 82.2%, the cell viability ([24]; 1 nM) was 98% and the cell viability ([24]; 10 nM) was 96%. It also gave a cell viability ([24]; 100 nM) of 110%, a cell viability ([24]; 1000 nM) of 100% and a cell viability ([24]; 10000 nM) of 71.4%. For the same compound, the cell viability ([25]; 1 nM) was 105%, the cell viability ([25]; 10 nM) was 97.1% and the cell viability ([25]; 100 nM) was 112%. For the same compound, the cell viability ([25]; 1000 nM) was 94.7%, the cell viability ([25]; 10000 nM) was 57.6% and the cell viability ([26]; 1 nM) was 110%. For the same compound, the cell viability ([26]; 10 nM) was 104%, the cell viability ([26]; 100 nM) was 124% and the cell viability ([26]; 1000 nM) was 102%. It also gave a cell viability ([26]; 10000 nM) of 18.5%, a cell viability ([27]; 1 nM) of 98.8% and a cell viability ([27]; 10 nM) of 102%. The cell viability ([27]; 100 nM) was 120%, the cell viability ([27]; 1000 nM) was 96.8% and the cell viability ([27]; 10000 nM) was 74.9%. The cell viability ([28]; 1 nM) was 98.2%, the cell viability ([28]; 10 nM) was 104% and the cell viability ([28]; 100 nM) was 109%. It also gave a cell viability ([28]; 1000 nM) of 102%, a cell viability ([28]; 10000 nM) of 43.2% and a cell viability ([29]; 1 nM) of 98.5%. For the same compound, the cell viability ([29]; 10 nM) was 105%, the cell viability ([29]; 100 nM) was 112% and the cell viability ([29]; 1000 nM) was 93.4%. It also gave a cell viability ([29]; 10000 nM) of 61.5%, a cell viability ([30]; 1 nM) of 96.1% and a cell viability ([30]; 10 nM) of 97.2%. It also gave a cell viability ([30]; 100 nM) of 105%, a cell viability ([30]; 1000 nM) of 95.5% and a cell viability ([30]; 10000 nM) of 28.4%.
In the case of `CC(C)(CCCCCCCCCCC(C)(C)CC(=O)O)CC(=O)O` [MEDICA 16], the “IC50 (cell viability)” value [1] was > 10 µM, the “IC50 (cell viability)” value [2] was > 10 µM and the “IC50 (cell viability)” value [3] was > 10 µM. For the same compound, the “IC50 (cell viability)” value [4] was > 10 µM, the “IC50 (cell viability)” value [5] was > 10 µM and the “IC50 (cell viability)” value [6] was > 10 µM. For the same compound, the “IC50 (cell viability)” value [7] was > 10 µM, the “IC50 (cell viability)” value [8] was > 10 µM and the “IC50 (cell viability)” value [9] was > 10 µM. For the same compound, the “IC50 (cell viability)” value [10] was > 10 µM, the “IC50 (cell viability)” value [11] was > 10 µM and the “IC50 (cell viability)” value [12] was > 10 µM. The “IC50 (cell viability)” value [13] was > 10 µM, the “IC50 (cell viability)” value [14] was > 10 µM and the “IC50 (cell viability)” value [15] was > 10 µM. The cell viability ([16]; 1 nM) was 109%, the cell viability ([16]; 10 nM) was 114% and the cell viability ([16]; 100 nM) was 98%. It also gave a cell viability ([16]; 1000 nM) of 116%, a cell viability ([16]; 10000 nM) of 108% and a cell viability ([17]; 1 nM) of 124%. The cell viability ([17]; 10 nM) was 105%, the cell viability ([17]; 100 nM) was 94% and the cell viability ([17]; 1000 nM) was 102%. For the same compound, the cell viability ([17]; 10000 nM) was 116%, the cell viability ([18]; 1 nM) was 119% and the cell viability ([18]; 10 nM) was 97.4%. For the same compound, the cell viability ([18]; 100 nM) was 107%, the cell viability ([18]; 1000 nM) was 107% and the cell viability ([18]; 10000 nM) was 98.7%. It also gave a cell viability ([19]; 1 nM) of 114%, a cell viability ([19]; 10 nM) of 108% and a cell viability ([19]; 100 nM) of 103%. For the same compound, the cell viability ([19]; 1000 nM) was 96.8%, the cell viability ([19]; 10000 nM) was 117% and the cell viability ([20]; 1 nM) was 104%. For the same compound, the cell viability ([20]; 10 nM) was 99.4%, the cell viability ([20]; 100 nM) was 96.3% and the cell viability ([20]; 1000 nM) was 101%. It also gave a cell viability ([20]; 10000 nM) of 91.5%, a cell viability ([21]; 1 nM) of 91.7% and a cell viability ([21]; 10 nM) of 95.8%. It also gave a cell viability ([21]; 100 nM) of 98.6%, a cell viability ([21]; 1000 nM) of 107% and a cell viability ([21]; 10000 nM) of 99.8%. For the same compound, the cell viability ([22]; 1 nM) was 110%, the cell viability ([22]; 10 nM) was 85.8% and the cell viability ([22]; 100 nM) was 99.3%. For the same compound, the cell viability ([22]; 1000 nM) was 98.6%, the cell viability ([22]; 10000 nM) was 97.8% and the cell viability ([23]; 1 nM) was 103%. For the same compound, the cell viability ([23]; 10 nM) was 94.8%, the cell viability ([23]; 100 nM) was 97.2% and the cell viability ([23]; 1000 nM) was 96.5%. It also gave a cell viability ([23]; 10000 nM) of 99.3%, a cell viability ([24]; 1 nM) of 100% and a cell viability ([24]; 10 nM) of 95.3%. The cell viability ([24]; 100 nM) was 101%, the cell viability ([24]; 1000 nM) was 101% and the cell viability ([24]; 10000 nM) was 103%. It also gave a cell viability ([25]; 1 nM) of 121%, a cell viability ([25]; 10 nM) of 104% and a cell viability ([25]; 100 nM) of 102%. For the same compound, the cell viability ([25]; 1000 nM) was 98.2%, the cell viability ([25]; 10000 nM) was 90.7% and the cell viability ([26]; 1 nM) was 113%. It also gave a cell viability ([26]; 10 nM) of 97.1%, a cell viability ([26]; 100 nM) of 107% and a cell viability ([26]; 1000 nM) of 79.4%. It also gave a cell viability ([26]; 10000 nM) of 96.7%, a cell viability ([27]; 1 nM) of 116% and a cell viability ([27]; 10 nM) of 108%. It also gave a cell viability ([27]; 100 nM) of 95.2%, a cell viability ([27]; 1000 nM) of 110% and a cell viability ([27]; 10000 nM) of 119%. It also gave a cell viability ([28]; 1 nM) of 99.8%, a cell viability ([28]; 10 nM) of 114% and a cell viability ([28]; 100 nM) of 102%. The cell viability ([28]; 1000 nM) was 102%, the cell viability ([28]; 10000 nM) was 111% and the cell viability ([29]; 1 nM) was 106%. For the same compound, the cell viability ([29]; 10 nM) was 94.2%, the cell viability ([29]; 100 nM) was 101% and the cell viability ([29]; 1000 nM) was 106%. It also gave a cell viability ([29]; 10000 nM) of 97.8%, a cell viability ([30]; 1 nM) of 105% and a cell viability ([30]; 10 nM) of 89.4%. It also gave a cell viability ([30]; 100 nM) of 98.5%, a cell viability ([30]; 1000 nM) of 94.2% and a cell viability ([30]; 10000 nM) of 106%.

— the supplement of paper PMC8671470
